The NIST ThermoML archive (doi:10.1021/je900550v)

Conditions: 101.33 kPa, Liquid; for speed of sound: Sing-around technique in a fixed-path interferometer; for mass density: Vibrating tube method

CC(=O)[O-].C[NH2+]CCO [N-methyl-2-hydroxyethylammonium acetate]
Conditions	mass density [kg/m3]	speed of sound [m/s]	viscosity [mPa·s]
308.15 K	1094.83	1769.3	–
308.4 K	1094.68	1768.7	–
308.65 K	1094.52	1768	–
308.9 K	1094.37	1767.4	–
309.15 K	1094.22	1766.8	–
309.4 K	1094.07	1766.1	–
309.65 K	1093.92	1765.5	–
309.9 K	1093.77	1764.8	–
310.15 K	1093.62	1764.2	–
310.4 K	1093.47	1763.6	–
310.65 K	1093.31	1762.9	–
310.91 K	1093.16	1762.3	–
311.16 K	1093.01	1761.7	–
311.4 K	1092.85	1761	–
311.65 K	1092.7	1760.4	–
311.91 K	1092.55	1759.7	–
312.16 K	1092.4	1759.1	–
312.41 K	1092.24	1758.5	–
312.66 K	1092.09	1757.8	–
312.91 K	1091.94	1757.2	–
313.15 K	–	–	46.16
313.16 K	1091.78	1756.5	–
313.4 K	1091.63	1755.9	–
313.66 K	1091.48	1755.2	–
313.9 K	1091.32	1754.6	–
314.15 K	1091.17	1753.9	–
314.4 K	1091.02	1753.3	–
314.65 K	1090.87	1752.6	–
314.9 K	1090.71	1752	–
315.15 K	1090.56	1751.3	–
315.41 K	1090.41	1750.7	–
315.65 K	1090.26	1750	–
315.91 K	1090.1	1749.4	–
316.16 K	1089.95	1748.7	–
316.41 K	1089.79	1748.1	–
316.66 K	1089.64	1747.4	–
316.91 K	1089.49	1746.8	–
317.16 K	1089.33	1746.1	–
317.4 K	1089.18	1745.5	–
317.66 K	1089.02	1744.8	–
317.91 K	1088.87	1744.2	–
318.15 K	–	–	37.28
318.16 K	1088.72	1743.5	–
318.41 K	1088.56	1742.8	–
318.65 K	1088.41	1742.2	–
318.9 K	1088.26	1741.5	–
319.16 K	1088.1	1740.9	–
319.41 K	1087.94	1740.2	–
319.65 K	1087.79	1739.6	–
319.91 K	1087.64	1738.9	–
320.16 K	1087.48	1738.2	–
320.41 K	1087.33	1737.6	–
320.65 K	1087.17	1736.9	–
320.91 K	1087.02	1736.3	–
321.15 K	1086.86	1735.6	–
321.41 K	1086.71	1735	–
321.66 K	1086.55	1734.3	–
321.9 K	1086.4	1733.6	–
322.15 K	1086.24	1733	–
322.41 K	1086.08	1732.3	–
322.65 K	1085.93	1731.7	–
322.91 K	1085.77	1731	–
323.15 K	–	–	29.06
323.16 K	1085.62	1730.3	–
323.41 K	1085.46	1729.7	–
323.65 K	1085.31	1729	–
323.91 K	1085.15	1728.3	–
324.16 K	1085	1727.7	–
324.41 K	1084.84	1727	–
324.65 K	1084.68	1726.4	–
324.9 K	1084.53	1725.7	–
325.16 K	1084.37	1725	–
325.4 K	1084.22	1724.4	–
325.66 K	1084.06	1723.7	–
325.9 K	1083.9	1723.1	–
326.16 K	1083.75	1722.4	–
326.41 K	1083.59	1721.7	–
326.66 K	1083.43	1721.1	–
326.9 K	1083.28	1720.4	–
327.16 K	1083.12	1719.7	–
327.4 K	1082.97	1719.1	–
327.66 K	1082.81	1718.4	–
327.9 K	1082.65	1717.7	–
328.15 K	1082.49	1717.1	–
328.41 K	1082.34	1716.4	–
328.66 K	1082.18	1715.8	–
328.9 K	1082.03	1715.1	–
329.16 K	1081.87	1714.4	–
329.4 K	1081.71	1713.8	–
329.65 K	1081.55	1713.1	–
329.9 K	1081.4	1712.5	–
330.16 K	1081.24	1711.8	–
330.41 K	1081.08	1711.1	–
330.66 K	1080.92	1710.5	–
330.91 K	1080.77	1709.8	–
331.16 K	1080.61	1709.1	–
331.41 K	1080.45	1708.5	–
331.66 K	1080.29	1707.8	–
331.91 K	1080.13	1707.1	–
332.16 K	1079.97	1706.5	–
332.41 K	1079.82	1705.8	–
332.66 K	1079.66	1705.1	–
332.91 K	1079.5	1704.5	–
333.16 K	1079.34	1703.8	–
333.41 K	1079.19	1703.1	–
333.66 K	1079.03	1702.5	–
333.91 K	1078.87	1701.8	–
334.16 K	1078.71	1701.2	–
334.41 K	1078.55	1700.5	–
334.66 K	1078.39	1699.8	–
334.91 K	1078.23	1699.2	–
335.16 K	1078.08	1698.5	–
335.41 K	1077.92	1697.9	–
335.66 K	1077.76	1697.2	–
335.91 K	1077.6	1696.6	–
336.16 K	1077.44	1696	–
336.41 K	1077.28	1695.3	–
336.66 K	1077.12	1694.7	–
336.9 K	1076.96	1694	–
337.16 K	1076.8	1693.4	–
337.4 K	1076.63	1692.8	–
337.66 K	1076.47	1692.2	–
337.9 K	1076.32	1691.7	–
338.15 K	1076.16	1691.3	–
